# Measured values from PubChem BioAssay AID330 (DTP/NCI, 2004).
# Where “and” joins values, the source holds several entries; their conditions need not be identical. Equal values may be shown once. Toxic doses and inconclusive results are not listed. Peptide text beside a SMILES is read from it.
# Tested on: P388 leukemia ip, CD2F1 mice, survival T/C
# Assay: NCI In Vivo Anticancer Drug Screen. Data for tumor model P388 Leukemia (intraperitoneal) in CD2F1 (CDF1) mice
# Conditions: endpoint: median survival time, higher = longer survival
# In short: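 Mice carrying the transplanted tumor received test compound or vehicle. Survival was recorded in each group, and the value is the treated-group measurement divided by that of the vehicle-treated control group.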
# [1] = dose: 50.0 mg/kg/injection, schedule: Q01DX005 (ip), vehicle: saline
# [2] = dose: 100.0 mg/kg/injection, schedule: Q01DX005 (ip), vehicle: saline
# [3] = dose: 200.0 mg/kg/injection, schedule: Q01DX005 (ip), vehicle: saline
# [4] = dose: 12.5 mg/kg/injection, schedule: Q01DX009 (ip), vehicle: saline with Tween-80
# [5] = dose: 25.0 mg/kg/injection, schedule: Q01DX009 (ip), vehicle: saline with Tween-80
# [6] = dose: 50.0 mg/kg/injection, schedule: Q01DX009 (ip), vehicle: saline with Tween-80
# [7] = dose: 60.0 mg/kg/injection, schedule: Q01DX005 (ip), vehicle: saline with Tween-80
# [8] = dose: 120.0 mg/kg/injection, schedule: Q01DX005 (ip), vehicle: saline with Tween-80
# [9] = dose: 240.0 mg/kg/injection, schedule: Q01DX005 (ip), vehicle: saline with Tween-80
# [10] = dose: 50.0 mg/kg/injection, schedule: Q01DX005 (ip), vehicle: Klucel (hydroxypropylcellulose) (HPC)
# [11] = dose: 100.0 mg/kg/injection, schedule: Q01DX005 (ip), vehicle: Klucel (hydroxypropylcellulose) (HPC)
# [12] = dose: 200.0 mg/kg/injection, schedule: Q01DX005 (ip), vehicle: Klucel (hydroxypropylcellulose) (HPC)
# [13] = dose: 100.0 mg/kg/injection, schedule: Q04DX003 (ip), vehicle: saline with Tween-80
# [14] = dose: 200.0 mg/kg/injection, schedule: Q04DX003 (ip), vehicle: saline with Tween-80
# [15] = dose: 400.0 mg/kg/injection, schedule: Q04DX003 (ip), vehicle: saline with Tween-80
# [16] = dose: 50.0 mg/kg/injection, schedule: Q01DX009 (ip), vehicle: saline
# [17] = dose: 100.0 mg/kg/injection, schedule: Q01DX009 (ip), vehicle: saline
# [18] = dose: 200.0 mg/kg/injection, schedule: Q01DX009 (ip), vehicle: saline
compound,measurement,setting,value
Cc1nc2[nH]ncc2c(=O)n1N,T/C,[1],97 % of control
same,T/C,[2],108 % of control
same,T/C,[3],101 % of control
O=S1(=O)OCCO1,T/C,"dose: 12.5 mg/kg/injection, schedule: Q01DX005 (ip), vehicle: saline",106 % of control
same,T/C,"dose: 25.0 mg/kg/injection, schedule: Q01DX005 (ip), vehicle: saline",108 % of control
COc1ccc(C2CC(=O)N(CN3CCN(c4ccccc4)CC3)C(=O)C2)cc1,T/C,[4],98 % of control
same,T/C,[5],93 % of control
same,T/C,[6],87 % of control and 92 % of control
C1CCCNCCNCCNCC1,T/C,[7],98 % of control
same,T/C,[8],100 % of control
same,T/C,[9],92 % of control
CC(=O)OCC(O)CS(=O)c1ccc(C)cc1 (configuration not stated),T/C,[5],100 % of control
same,T/C,[6],99 % of control
same,T/C,"dose: 100.0 mg/kg/injection, schedule: Q01DX009 (ip), vehicle: saline with Tween-80",98 % of control
O=C1NC2Cc3ccccc3C(C2)O1 (configuration not stated),T/C,[7],101 % of control
same,T/C,[8],100 % of control
same,T/C,[9],93 % of control
C(NC=C1c2ccccc2-c2ccccc21)=C1c2ccccc2-c2ccccc21,T/C,[10],100 % of control
same,T/C,[11],92 % of control
same,T/C,[12],94 % of control
CC1C[N+]2(CNC(=O)C3=C(O)C4(O)C(=O)C5=C(O)c6c(O)cccc6C(C)(O)C5CC4C(N(C)C)C3=O)CC(C)O[B-]2(c2ccccc2)O1 (configuration not stated),T/C,[10],110 % of control
same,T/C,[11],110 % of control
same,T/C,[12],100 % of control
CCOP(=O)(O)OCC.[Y],T/C,[13],93 % of control
same,T/C,[14],100 % of control
same,T/C,[15],111 % of control
Nc1ncnc2c1c(-c1ccccc1)cn2-c1ccc(I)cc1,T/C,[7],103 % of control
same,T/C,[8],100 % of control
same,T/C,[9],96 % of control
O=C1Cc2ccccc2N1,T/C,[16],116 % of control
same,T/C,[17],107 % of control
same,T/C,[18],105 % of control
Oc1ccc2ccccc2c1C=NCCS,T/C,[7],87 % of control
same,T/C,[8],87 % of control
CC(=O)O.[Cd],T/C,"dose: 1.25 mg/kg/injection, schedule: Q01DX009 (ip), vehicle: saline",95 % of control
same,T/C,"dose: 1.25 mg/kg/injection, schedule: Q04DX003 (ip), vehicle: saline",90 % of control
same,T/C,"dose: 2.5 mg/kg/injection, schedule: Q01DX009 (ip), vehicle: saline",100 % of control
same,T/C,"dose: 2.5 mg/kg/injection, schedule: Q04DX003 (ip), vehicle: saline",90 % of control
same,T/C,"dose: 5.0 mg/kg/injection, schedule: Q01DX009 (ip), vehicle: saline",100 % of control
same,T/C,"dose: 5.0 mg/kg/injection, schedule: Q04DX003 (ip), vehicle: saline",95 % of control
CCOC(=O)CC(=O)c1ccc(C)cc1,T/C,[13],100 % of control
same,T/C,[14],104 % of control
same,T/C,[15],109 % of control
OCC1OC(n2cnc3c(NO)ncnc32)C(O)C1O (configuration not stated),T/C,"dose: 12.5 mg/kg/injection, schedule: Q01DX009 (ip), vehicle: Klucel (hydroxypropylcellulose) (HPC)",102 % of control
same,T/C,"dose: 25.0 mg/kg/injection, schedule: Q01DX009 (ip), vehicle: Klucel (hydroxypropylcellulose) (HPC)",100 % of control
same,T/C,"dose: 50.0 mg/kg/injection, schedule: Q01DX009 (ip), vehicle: Klucel (hydroxypropylcellulose) (HPC)",99 % of control and 109 % of control and 110 % of control
same,T/C,"dose: 100.0 mg/kg/injection, schedule: Q01DX009 (ip), vehicle: Klucel (hydroxypropylcellulose) (HPC)",100 % of control and 107 % of control and 113 % of control
same,T/C,"dose: 200.0 mg/kg/injection, schedule: Q01DX009 (ip), vehicle: Klucel (hydroxypropylcellulose) (HPC)",103 % of control and 113 % of control and 97 % of control
same,T/C,"dose: 400.0 mg/kg/injection, schedule: Q01DX009 (ip), vehicle: Klucel (hydroxypropylcellulose) (HPC)",102 % of control and 119 % of control
CCC1=CC2CN(CCc3c([nH]c4ccccc34)C(C(=O)OC)(c3cc4c(cc3OC)N(C=O)C3C(O)(C(=O)NC)C(OC(C)=O)C5(CC)C=CCN6CCC43C65)C2)C1 (configuration not stated),T/C,"dose: 1.0 mg/kg/injection, schedule: Q01DX001 (ip), vehicle: water",150 % of control
same,T/C,"dose: 2.0 mg/kg/injection, schedule: Q01DX001 (ip), vehicle: water",153 % of control
same,T/C,"dose: 4.0 mg/kg/injection, schedule: Q01DX001 (ip), vehicle: water",160 % of control
COc1ccc(CN(CCCCCCN(Cc2ccc(OC)cc2)CC23CC4CC(CC(C4)C2)C3)CC23CC4CC(CC(C4)C2)C3)cc1,T/C,"dose: 100.0 mg/kg/injection, schedule: Q04DX002 (ip), vehicle: saline with Tween-80",98 % of control
same,T/C,"dose: 200.0 mg/kg/injection, schedule: Q04DX002 (ip), vehicle: saline with Tween-80",94 % of control
same,T/C,"dose: 400.0 mg/kg/injection, schedule: Q04DX002 (ip), vehicle: saline with Tween-80",94 % of control
O=Ic1ccccc1,T/C,"dose: 3.12 mg/kg/injection, schedule: Q01DX009 (ip), vehicle: saline with Tween-80",104 % of control
same,T/C,"dose: 6.25 mg/kg/injection, schedule: Q01DX009 (ip), vehicle: saline with Tween-80",108 % of control
same,T/C,[4],114 % of control
same,T/C,[5],112 % of control
same,T/C,[6],99 % of control
CCOC(=O)NCCCl,T/C,"dose: 5.0 mg/kg/injection, schedule: Q01DX009 (ip), vehicle: saline with Tween-80",104 % of control
same,T/C,"dose: 10.0 mg/kg/injection, schedule: Q01DX009 (ip), vehicle: saline with Tween-80",107 % of control
same,T/C,"dose: 20.0 mg/kg/injection, schedule: Q01DX009 (ip), vehicle: saline with Tween-80",101 % of control
same,T/C,"dose: 50.0 mg/kg/injection, schedule: Q01DX008 (ip), vehicle: saline",95 % of control
same,T/C,"dose: 100.0 mg/kg/injection, schedule: Q01DX008 (ip), vehicle: saline",98 % of control
same,T/C,"dose: 200.0 mg/kg/injection, schedule: Q01DX008 (ip), vehicle: saline",107 % of control
same,T/C,"dose: 400.0 mg/kg/injection, schedule: Q01DX008 (ip), vehicle: saline",101 % of control
NC(=O)SCC(=O)Nc1ccc2ncccc2c1,T/C,"dose: 100.0 mg/kg/injection, schedule: Q01DX009 (ip), vehicle: saline sonified",100 % of control
same,T/C,"dose: 100.0 mg/kg/injection, schedule: Q04DX003 (ip), vehicle: saline sonified",100 % of control
same,T/C,"dose: 200.0 mg/kg/injection, schedule: Q01DX009 (ip), vehicle: saline sonified",113 % of control
same,T/C,"dose: 200.0 mg/kg/injection, schedule: Q04DX003 (ip), vehicle: saline sonified",100 % of control
same,T/C,"dose: 400.0 mg/kg/injection, schedule: Q01DX009 (ip), vehicle: saline sonified",90 % of control
same,T/C,"dose: 400.0 mg/kg/injection, schedule: Q04DX003 (ip), vehicle: saline sonified",104 % of control
CCOP(=S)(N/N=C/c1ccc2ccccc2c1O)OCC,T/C,[10],109 % of control
same,T/C,[11],106 % of control
same,T/C,[12],95 % of control
Nc1cccc(CC(=O)Nc2ccccc2)c1,T/C,"dose: 100.0 mg/kg/injection, schedule: Q04DX002 (ip), vehicle: Klucel (hydroxypropylcellulose) (HPC)",100 % of control
same,T/C,"dose: 200.0 mg/kg/injection, schedule: Q04DX002 (ip), vehicle: Klucel (hydroxypropylcellulose) (HPC)",97 % of control
COC1C(/C=[N+](\C)[O-])OC2OC(C)(C)OC21 (configuration not stated),T/C,[1],102 % of control
same,T/C,[2],100 % of control
same,T/C,[3],93 % of control
CCOC(=O)c1cnc2c(C(F)(F)F)cccc2c1N=[N+]=[N-],T/C,[7],99 % of control
same,T/C,[8],96 % of control
same,T/C,[9],95 % of control
CCOC(=O)C1=NN2C(O)C3(C)CC(C(=O)OCC)=NN3C(O)C2(C)C1 (configuration not stated),T/C,[16],105 % of control
same,T/C,[17],107 % of control
same,T/C,[18],99 % of control
NC(CCC(=O)O)C(=O)NC(Cc1ccc(O)cc1)C(=O)NC(CCC(=O)O)C(=O)O (stereo not drawn) (H-Glu-Tyr-Glu-OH; configuration not given here),T/C,[10],93 % of control
same,T/C,[11],100 % of control
same,T/C,[12],98 % of control
FC(F)(F)c1ccc2nc(Cl)[nH]c2c1,T/C,"dose: 50.0 mg/kg/injection, schedule: Q01DX005 (ip), vehicle: saline with Tween-80",98 % of control
same,T/C,"dose: 100.0 mg/kg/injection, schedule: Q01DX005 (ip), vehicle: saline with Tween-80",98 % of control
